Test results from patent US9604945B2, “Sydnonimines-specific dopamine reuptake inhibitors and their use in treating dopamine related disorders” (priority 2007, dated 2017).

Legend:
[1] = system: male mice; test: Accelerating rotarod assay; format: in vivo, mouse; conditions: 10 and 90 mg/kg, FIG. 11
Experimental: Rotarod assays were also performed using the experimental protocol and design set forth below. Individually housed male mice aged 8-12 weeks were used for this experiment. Mice were maintained on a reverse L:D/12 p.m.: 12 a.m. cycle in a barrier facility with food and water available ad libitum. Testing occurred towards the end of the light cycle between 6-12 a.m. Mice were acclimated to the testing room for at least 30 minutes.
The assay was carried out using four EzRod test chambers kept in a laminar hood for testing. For the accelerating rotarod paradigm, mice were given 10 trials with the maximum duration of 3 minute and a 30-second intertrial interral (ITI). Each mouse was placed on the EZRod machines and the latency to fall was recorded for all trials. If the mouse fell or 3 minutes elapsed, the mouse was left in the bottom of the EzRod test chamber for 30 seconds before starting the next trial.
The latency to fall was compared between the two groups by analysis of variance (ANOVA) with repeated measures.

[2] = system: male Swiss Webster mice; test: Spontaneous locomotor activity dose response study (NIDA MDD protocol); format: in vivo, mouse; conditions: 3, 10, 30 or 100 mg/kg IP, FIGS. 4 and 5
Experimental: A dose response study was conducted of locomotor depression induced by the compound of Example 3, according to NIDA's Medication Development Division (MDD) locomoter activity studies standard protocol. The study was conducted using 40 Digiscan locomotor activity testing chambers (40.5×40.5×30.5 cm) housed in sets of two, within sound attenuating chambers. A panel of infrared beams (16 beams) and corresponding photodetectors were located in the horizontal direction along the sides of each activity chamber. A 7.5 W incandescent light above each chamber provided dim illumination. Fans provided an 80 dB ambient noise level within the chamber. Separate groups of 8 non-habituated male Swiss Webster mice (Hsd:ND4, aged 2-3 months) were injected via the intraperitoneal (IP) route with either vehicle (2% methyl cellulose) or the compound of Example 3, above, (3, 10, 30 or 100 mg/kg) twenty minutes prior to locomotor activity testing. Just piro to placement in the apparatus, all mice received a saline injection IP. In all studies, horizontal activity (interruption of photocell beams) was measured for 1 hour within 10 minute periods. Testing was conducted with one mouse per activity chamber.
The same protocol was followed in a study of locomotor depression induced by the compound of Example 6. […]

[3] = Brain drug concentration by different routes of administration; format: in vivo, C57BL/6 mice; conditions: for Brain Drug Concentration: time 0 (pre-dose); for concentration at 5 min / concentration at 15 min / concentration at 30 min / concentration at 60 min / concentration at 120 min / concentration at 240 min / concentration at 480 min: C57BL/6, mouse, brain
Experimental: The following materials and methods are provided to facilitate the practice of Example 9, in which drug concentration in certain biological samples were assessed using different routes of administration.
Parameters Used in Dosing and Drug Administration of the Compound of Example 3:
Adult C57BL/6 mice (preferred 16 weeks old).
Three mice per time point. If all three routes are conducted in same day, one group of pre-dose is efficient.
In the studies using adult C57BL/6 mice (preferably approximately 16 weeks old), dosing and drug administration parameters for the compound of Example 3 were explored. Clearly, the compound is suitable for oral administration and lasts in the plasma up to 2-3 hours.

[4] = system: male mice; test: Novel environment-induced feeding suppression (NEIFS); format: in vivo, mouse; conditions: 10 and 90 mg/kg, FIG. 10
Experimental: Novel environment-induced feeding suppression (NEIFS) testing was also performed. Individually housed male mice aged 8-12 weeks are used for this testing. Mice were maintained no a reverse L:D/12 p.m.:12 a.m. cycle in a barrier facility with food and water available ad libitum. Testing occurred towards the end of the light cycle between 6-12 a.m. The mice were acclimated to the testing room for at least 30 minutes.
Days 1, 2, 3 and 5 (Home cage): A Petri dish containing crushed Graham crackers was placed in the farthest corner from each mouse in its own home cage. The time to approach (defined as nose of the mouse directed at or within 1 cm of the dish) and consume (eat, not pick up) the crackers was recorded immediately following the placement of the dish into home cage.
Day 4 (Novel environment): The procedure followed was the same as described for home cage; however, on day 4 the mouse was placed in a new cage with bedding (novel environment) for the duration of the experiment. The mice were subsequently returned to their respective home cages for day 5 testing. The remaining crackers and Petri dish were disposed of at the end of the experiment for each mouse.

[5] = system: mice; test: Irwin behavioral battery; format: in vivo, mouse; conditions: FIGS. 7A-7C
Experimental: To further characterize the pharmacological effects of these compounds, Irwin behavioral battery testing was performed.
Testing occurred towards the end of the light cycle between 8-11 a.m. (lights go off at 11:00 a.m.). The mice were acclimated to the testing room for at least 30 minutes. The Irwin test equipment (timer, viewing jar and support, open arena, grid, ruler, sound box, wood stocks, kimwipes box) was placed under a laminar flow hood. The mouse was first placed in the viewing jar for five (5) minutes and the following parameters were scored:
At the end of the 5-minute period, the viewing jar with the muose in it was transferred to the arena, where the jar was disassembled and the mouse released into the arena. The mouse was not handled by the experimenter. The following parameters were scored in the arena in the following order:
Then the mouse was picked up by its tail and kept above the arena to score the following set of parameters:
The mouse was then placed in supine restraint to score the below parameters in the following order:
The final three parameters were scored with the mouse above or in the arena: […]

In the case of `Cc1ccc(C[n+]2[cH-]/c(=N\C(=O)Nc3ccccc3)on2)cc1` [Example 3, N-phenylcarbamoyl-3-(p-methyl-benzyl)-sydnonimine], the Rotarod performance [1] was “did not affect rotarod performance”, the “Effect on spontaneous locomotor activity” value [2] was “dose dependent suppression of spontaneous locomotor activity” and the “Brain Drug Concentration” value ([3]; 10 mg/kg (IP)) was 0.00 ng/mL. For the same compound, the “Brain Drug Concentration” value ([3]; 10 mg/kg (IV)) was 95.10 ng/mL, the “Brain Drug Concentration” value ([3]; 10 mg/kg (PO)) was 107.55 ng/mL and the “Brain Drug Concentration” value ([3]; 30 mg/kg (PO)) was 123.97 ng/mL. It also gave a concentration at 5 min ([3]; intraperitoneal, 10 mg/kg (IP)) of 1460 ng/mL, a concentration at 15 min ([3]; intraperitoneal, 10 mg/kg (IP)) of 374 ng/mL and a concentration at 30 min ([3]; intraperitoneal, 10 mg/kg (IP)) of 242 ng/mL. It also gave a concentration at 60 min ([3]; intraperitoneal, 10 mg/kg (IP)) of 190 ng/mL, a concentration at 120 min ([3]; intraperitoneal, 10 mg/kg (IP)) of 70.2 ng/mL and a concentration at 240 min ([3]; intraperitoneal, 10 mg/kg (IP)) of 143 ng/mL. The concentration at 480 min ([3]; intraperitoneal, 10 mg/kg (IP)) was 123 ng/mL, the concentration at 5 min ([3]; 10 mg/kg (IV)) was 2310 ng/mL and the concentration at 15 min ([3]; 10 mg/kg (IV)) was 1720 ng/mL. It also gave a concentration at 30 min ([3]; 10 mg/kg (IV)) of 1140 ng/mL, a concentration at 60 min ([3]; 10 mg/kg (IV)) of 464 ng/mL and a concentration at 120 min ([3]; 10 mg/kg (IV)) of 78.7 ng/mL. It also gave a concentration at 240 min ([3]; 10 mg/kg (IV)) of 178 ng/mL, a concentration at 480 min ([3]; 10 mg/kg (IV)) of 49 ng/mL and a concentration at 5 min ([3]; 10 mg/kg (PO)) of 418 ng/mL. The concentration at 15 min ([3]; 10 mg/kg (PO)) was 298 ng/mL, the concentration at 30 min ([3]; 10 mg/kg (PO)) was 150 ng/mL and the concentration at 60 min ([3]; 10 mg/kg (PO)) was 158 ng/mL. It also gave a concentration at 120 min ([3]; 10 mg/kg (PO)) of 165 ng/mL, a concentration at 240 min ([3]; 10 mg/kg (PO)) of 97.5 ng/mL and a concentration at 480 min ([3]; 10 mg/kg (PO)) of 163 ng/mL. The concentration at 5 min ([3]; 30 mg/kg (PO)) was 869 ng/mL, the concentration at 15 min ([3]; 30 mg/kg (PO)) was 845 ng/mL and the concentration at 30 min ([3]; 30 mg/kg (PO)) was 627 ng/mL. The concentration at 60 min ([3]; 30 mg/kg (PO)) was 218 ng/mL, the concentration at 120 min ([3]; 30 mg/kg (PO)) was 203 ng/mL and the concentration at 240 min ([3]; 30 mg/kg (PO)) was 183 ng/mL. The concentration at 480 min ([3]; 30 mg/kg (PO)) was 168 ng/mL, the Brain penetration ([3]; administered orally or via intravenous administration) was “reaches the brain” and the “Anxiolytic effect in novel environment induced feeding suppression” value [4] was “induced measurable anxiolytic effects”. For the same compound, the “Behavioral effects in Irwin Behavioral Battery (spontaneous activity, grip strength, limb tone)” value [5] was “induced significant behavioral effects”.
